Measured values published in patent publication US20260248811A1, “COMPOSITIONS FOR TREATING AN INDIVIDUAL FOR IMPROVEMENT OF COGNITIVE FUNCTIONS” (priority 2023, published 2026).

Assays:
[1] = Total and free testosterone in blood plasma 15 minutes after sublingual intake of the androgen(s); type: in vivo, human; conditions: measured not calculated, 5 mg T or 5 mg T + 5 mg DHT
Method: Testosterone (T) vs. testosterone and dihydrotestosterone (T+DHT) The first example concerns two male heterosexual patients. Two alternative forms of testosterone administration were considered for a treatment. The first treatment involved taking 5 mg sublingual testosterone (T) (solution consisting of alcohol, denaturalized water, testosterone and cyclodextrins). The second consisted of simultaneously taking 5 mg sublingual testosterone and 5 mg sublingual dihydrotestosterone (DHT) (solution consisting of alcohol, denaturalized water, DHT and cyclodextrins). The testosterone and DHT solutions were prepared by a pharmacist on the request of a general practitioner. Subsequently, the changes in total testosterone and free testosterone in blood plasma were examined, 15 minutes after intake of the androgen(s).
The table below describes the effects of the different treatments on ‘total testosterone’ and ‘free testosterone (i.e. measured, not calculated)’ for both patients:
This is consistent with the assumption that SHBG becomes more saturated as a result of the binding of DHT to SHBG. This means that the ingested testosterone can no longer bind to SHBG, and consequently there will be a greater increase in unbound testosterone (i.e. free testosterone). […] Total testosterone and free testosterone were measured 15 minutes after the administration of T and (T&DHT). dysfunction/disorder

[2] = sublingually with cyclodextrins (women about 0.1-2 mg; men about 0.5-20 mg); cited from earlier work
[3] = intranasal administration; cited from earlier work

Row | SMILES | Free T ([1]; Patient 1, blood plasma) [pml/L] | Free T ([1]; Patient 2, blood plasma) [pml/L] | Time to pharmacological peak in testosterone and free testosterone [2] | Return of oxytocin levels to baseline [3] | T-max of oxytocin levels in the blood circulation [3]
1 | C[C@]12CC[C@H]3[C@@H](CCC4=CC(=O)CC[C@@]43C)[C@@H]1CC[C@@H]2O [T, 17-β-hydroxyandrost-4-en-3-one] | 440 | 1030 | about 15 minutes |  | 
2 | CC[C@H](C)[C@@H]1NC(=O)[C@H](Cc2ccc(O)cc2)NC(=O)[C@@H](N)CSSC[C@@H](C(=O)N2CCC[C@H]2C(=O)N[C@@H](CC(C)C)C(=O)NCC(N)=O)NC(=O)[C@H](CC(N)=O)NC(=O)[C@H](CCC(N)=O)NC1=O [oxytocin] |  |  |  | approximately 90 minutes | approximately 15 minutes
